Key:
BT-474 [1] = settings: 72 h
Procedure, shortened: (§1)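 The plates used were 384-well plates holding compound at 5 concentrations in 10-fold steps across a compound-specific 10,000-fold range, into which breast cancer cell lines were seeded in 20 µl suspension. Following 72 h incubation, CellTox Green fluorescence was read at 485/520 nm, and CellTiter-Glo luminescence was read after 10 min at room temperature. Normalisation on each plate used 0.1 % DMSO and a positive kill control. Dose-response curves gave the EC50, which was censored at the top concentration.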

BT-549 [2] = settings: 72 h
Procedure, shortened: as §1

HDQ-P1 [3] = settings: 72 h
Procedure, shortened: as §1

MCF-10A [4] = settings: 72 h
Procedure, shortened: as §1

MDA-MB-231 [5] = settings: 72 h
Procedure, shortened: as §1

MCF-10A [6] = settings: 72 h; remark: listed apart in the source
Procedure: (§2)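 Drug sensitivity and resistance testing (DSRT) of breast cancer cell lines in 384-well plates, 5 concentrations in 10-fold dilutions over a compound-specific 10,000-fold range. After 72 h, cytotoxicity was read by CellTox Green fluorescence and viability by CellTiter-Glo luminescence (multiplexed), normalised to DMSO and benzethonium chloride controls. EC50 is the inflection point of the fitted dose-response curve (bottom asymptote free, so it can be relative for partial curves) and is censored at the highest tested concentration. Rows with DSS 0 (no meaningful response) were excluded.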

MDA-MB-231 [7] = settings: 72 h; remark: listed apart in the source
Procedure: as §2

MDA-MB-468 [8] = settings: 72 h
Procedure: as §2

BT-474 [9] = test: normalised response (% of control), CellTiter-Glo; higher = more viable cells (100 = DMSO, 0 = benzethonium chloride kill control); settings: incubation time: 72 h
Procedure, shortened: (§3)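 CellTox Green fluorescence (485/520 nm) and, after 10 min at room temperature, CellTiter-Glo luminescence were read from breast cancer cell lines incubated 72 h in 384-well plates. Cells were seeded as 20 µl suspension onto compound at 5 concentrations in 10-fold steps over a 10,000-fold range chosen per compound. Each plate was normalised to 0.1 % DMSO (100) and a positive kill control (0). Values are normalised signals, one per concentration.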

BT-549 [10] = test: as above; settings: incubation time: 72 h
Procedure, shortened: as §3

CAL-120 [11] = test: as above; settings: incubation time: 72 h
Procedure, shortened: as §3

CAL-148 [12] = test: as above; settings: incubation time: 72 h
Procedure, shortened: as §3

CAL-51 [13] = test: as above; settings: incubation time: 72 h
Procedure, shortened: as §3

CAL-85-1 [14] = test: as above; settings: incubation time: 72 h
Procedure, shortened: as §3

DU-4475 [15] = test: as above; settings: incubation time: 72 h
Procedure, shortened: as §3

HCC1143 [16] = test: as above; settings: incubation time: 72 h
Procedure, shortened: as §3

HCC1599 [17] = test: as above; settings: incubation time: 72 h
Procedure, shortened: as §3

HCC1937 [18] = test: as above; settings: incubation time: 72 h
Procedure, shortened: as §3

HDQ-P1 [19] = test: as above; settings: incubation time: 72 h
Procedure, shortened: as §3

Hs578T [20] = test: as above; settings: incubation time: 72 h
Procedure, shortened: as §3

MCF-10A [21] = test: as above; settings: incubation time: 72 h
Procedure, shortened: as §3

MDA-MB-231 [22] = test: as above; settings: incubation time: 72 h
Procedure, shortened: as §3

MDA-MB-436 [23] = test: as above; settings: incubation time: 72 h
Procedure, shortened: as §3

MDA-MB-453 [24] = test: as above; settings: incubation time: 72 h
Procedure, shortened: as §3

MDA-MB-468 [25] = test: as above; settings: incubation time: 72 h
Procedure, shortened: as §3

MFM-223 [26] = test: as above; settings: incubation time: 72 h
Procedure, shortened: as §3

SK-BR-3 [27] = test: as above; settings: incubation time: 72 h
Procedure, shortened: as §3

BT-474 [28] = test: normalised viability (% of control), CellTiter-Blue; higher = more viable cells (100 = DMSO, 0 = benzethonium chloride kill control); settings: incubation time: 72 h
Procedure, shortened: (§4)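 Seeded at 20 µl suspension per well onto compound-loaded 384-well plates, breast cancer cell lines were incubated 72 h. CellTiter-Blue fluorescence at 560/590 nm was then read, with each plate normalised to vehicle (100) and a positive kill control (0). Normalised viability is reported at a single listed concentration of the series.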

BT-549 [29] = test: as above; settings: incubation time: 72 h
Procedure, shortened: as §4

CAL-120 [30] = test: as above; settings: incubation time: 72 h
Procedure, shortened: as §4

CAL-148 [31] = test: as above; settings: incubation time: 72 h
Procedure, shortened: as §4

CAL-51 [32] = test: as above; settings: incubation time: 72 h
Procedure, shortened: as §4

CAL-85-1 [33] = test: as above; settings: incubation time: 72 h
Procedure, shortened: as §4

DU-4475 [34] = test: as above; settings: incubation time: 72 h
Procedure, shortened: as §4

HCC1143 [35] = test: as above; settings: incubation time: 72 h
Procedure, shortened: as §4

HCC1599 [36] = test: as above; settings: incubation time: 72 h
Procedure, shortened: as §4

HCC1937 [37] = test: as above; settings: incubation time: 72 h
Procedure, shortened: as §4

HDQ-P1 [38] = test: as above; settings: incubation time: 72 h
Procedure, shortened: as §4

Hs578T [39] = test: as above; settings: incubation time: 72 h
Procedure, shortened: as §4

MDA-MB-231 [40] = test: as above; settings: incubation time: 72 h
Procedure, shortened: as §4

MDA-MB-436 [41] = test: as above; settings: incubation time: 72 h
Procedure, shortened: as §4

MDA-MB-453 [42] = test: as above; settings: incubation time: 72 h
Procedure, shortened: as §4

MDA-MB-468 [43] = test: as above; settings: incubation time: 72 h
Procedure, shortened: as §4

MFM-223 [44] = test: as above; settings: incubation time: 72 h
Procedure, shortened: as §4

SK-BR-3 [45] = test: as above; settings: incubation time: 72 h
Procedure, shortened: as §4

CCC(C)(C)C(=O)O[C@H]1C[C@@H](C)C=C2C=C[C@H](C)[C@H](CC[C@@H]3C[C@@H](O)CC(=O)O3)[C@H]21 [Simvastatin] was tested, and the “EC50, CellTiter-Glo” value (BT-474 [1]) was 1200 nM, the “EC50, CellTiter-Glo” value (BT-549 [2]) was > 10000 nM and the “EC50, CellTiter-Glo” value (HDQ-P1 [3]) was 1700 nM. For the same compound, the “EC50, CellTiter-Glo” value (MCF-10A [4]) was 6390 nM, the “EC50, CellTiter-Glo” value (MDA-MB-231 [5]) was 3150 nM and the “EC50, CellTox Green” value (MCF-10A [6]) was 2590 nM. The “EC50, CellTox Green” value (MDA-MB-231 [7]) was 1680 nM and the “EC50, CellTox Green” value (MDA-MB-468 [8]) was 511 nM.

Compound Oc1nc(-c2ccc(C(F)(F)F)cc2)nc2c1CSCC2 [XAV-939] (1 nM) has a normalised response (BT-474 [9]) of 99.7%, a normalised response (BT-549 [10]) of 95.8% and a normalised response (CAL-120 [11]) of 97.1%. The normalised response (CAL-148 [12]) was 92.4%, the normalised response (CAL-51 [13]) was 97.6% and the normalised response (CAL-85-1 [14]) was 104%. It also gave a normalised response (DU-4475 [15]) of 104%, a normalised response (HCC1143 [16]) of 100% and a normalised response (HCC1599 [17]) of 95.8%. For the same compound, the normalised response (HCC1937 [18]) was 97.2%, the normalised response (HDQ-P1 [19]) was 98.9% and the normalised response (Hs578T [20]) was 97.1%. For the same compound, the normalised response (MCF-10A [21]) was 101%, the normalised response (MDA-MB-231 [22]) was 101% and the normalised response (MDA-MB-436 [23]) was 107%. It also gave a normalised response (MDA-MB-453 [24]) of 97.6%, a normalised response (MDA-MB-468 [25]) of 99.1% and a normalised response (MFM-223 [26]) of 102%. For the same compound, the normalised response (SK-BR-3 [27]) was 99.2%, the normalised viability (BT-474 [28]) was 84.9% and the normalised viability (BT-549 [29]) was 99.4%. The normalised viability (CAL-120 [30]) was 97.7%, the normalised viability (CAL-148 [31]) was 101% and the normalised viability (CAL-51 [32]) was 102%. It also gave a normalised viability (CAL-85-1 [33]) of 93.8%, a normalised viability (DU-4475 [34]) of 119% and a normalised viability (HCC1143 [35]) of 97.6%. For the same compound, the normalised viability (HCC1599 [36]) was 141%, the normalised viability (HCC1937 [37]) was 84% and the normalised viability (HDQ-P1 [38]) was 97.3%. For the same compound, the normalised viability (Hs578T [39]) was 89.6%, the normalised viability (MDA-MB-231 [40]) was 100% and the normalised viability (MDA-MB-436 [41]) was 119%. The normalised viability (MDA-MB-453 [42]) was 106%, the normalised viability (MDA-MB-468 [43]) was 104% and the normalised viability (MFM-223 [44]) was 107%. For the same compound, the normalised viability (SK-BR-3 [45]) was 99.3%.
